The values below come from patent US10550105B2 (Ribon Therapeutics Inc., priority 2018, dated 2020).

Each structure is given as a SMILES string.

PARP7, sequence (Q7Z3E1 whole entry): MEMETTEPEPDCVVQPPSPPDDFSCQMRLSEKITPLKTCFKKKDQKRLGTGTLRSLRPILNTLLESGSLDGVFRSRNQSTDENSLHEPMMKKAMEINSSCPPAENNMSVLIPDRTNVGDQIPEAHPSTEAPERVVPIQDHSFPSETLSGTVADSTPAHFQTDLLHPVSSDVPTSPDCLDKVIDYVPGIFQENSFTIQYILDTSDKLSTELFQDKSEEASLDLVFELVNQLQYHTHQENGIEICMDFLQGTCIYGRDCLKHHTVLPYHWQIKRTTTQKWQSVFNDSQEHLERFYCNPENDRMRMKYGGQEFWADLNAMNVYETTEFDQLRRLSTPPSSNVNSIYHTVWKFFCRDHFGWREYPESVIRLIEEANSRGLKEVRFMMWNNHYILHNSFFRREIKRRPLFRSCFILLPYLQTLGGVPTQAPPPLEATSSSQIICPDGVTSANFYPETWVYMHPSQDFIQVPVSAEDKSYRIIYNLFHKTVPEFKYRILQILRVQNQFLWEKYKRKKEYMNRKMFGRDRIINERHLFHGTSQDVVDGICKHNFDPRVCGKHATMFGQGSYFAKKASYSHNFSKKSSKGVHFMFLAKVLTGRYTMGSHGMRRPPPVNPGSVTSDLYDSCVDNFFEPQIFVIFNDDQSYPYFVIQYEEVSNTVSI

The assay deals with PARP7 (Homo sapiens (Human), UniProt Q7Z3E1). Kind of assay: Enzymatic assay for inhibition of PARP7: TR-FRET displacement of biotinylated Probe A from the TIPARP active site. Type of assay: binding. The following applies: Table A-1. The essentials:
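Displacement of biotinylated Probe A from TIPARP was measured as the 665/615 nm time-resolved FRET ratio (excitation 320 nm, 90 μs delay) after a further 30 min at 25 °C. Inhibition across compound concentrations was fitted by dose-response regression, with the Hill slope free or fixed at 1 (3-parameter fit).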
In general terms: In TR-FRET formats the signal depends on donor and acceptor labels being close together.
As a reminder, the IC50 is the concentration that inhibits the measured activity by half. The low end stands for greater potency in that assay, the high end for weaker potency in that assay. Consider `O=C(C[C@@H]1CC[C@@H]([C@@H]2CCCN2c2cn[nH]c(=O)c2C(F)(F)F)O1)N1CCN(c2ncc(C(F)(F)F)cn2)CC1` [Example 149A, 5-[(2S)-2-[(2S,5S)-5-(2-oxo-2-[4-[5-(trifluoromethyl)pyrimidin-2-yl]piperazin-1-yl]ethyl)oxolan-2-yl]pyrrolidin-1-yl]-4-(trifluoromethyl)-2,3-dihydropyridazin-3-one], for which the IC50 is under 100 nM.
The figure for `O=C(C[C@H]1CC[C@@H]([C@@H]2CCCN2c2cn[nH]c(=O)c2C(F)(F)F)O1)N1CCN(c2ncc(C(F)(F)F)cn2)CC1` [Example 149B, 5-[(2S)-2-[(2S,5R)-5-(2-oxo-2-[4-[5-(trifluoromethyl)pyrimidin-2-yl]piperazin-1-yl]ethyl)oxolan-2-yl]pyrrolidin-1-yl]-4-(trifluoromethyl)-2,3-dihydropyridazin-3-one] is under 100 nM; for `O=C(C[C@@H]1CC[C@H]([C@@H]2CCCN2c2cn[nH]c(=O)c2C(F)(F)F)O1)N1CCN(c2ncc(C(F)(F)F)cn2)CC1` [Example 149C, 5-[(2S)-2-[(2R,5S)-5-(2-oxo-2-[4-[5-(trifluoromethyl)pyrimidin-2-yl]piperazin-1-yl]ethyl)oxolan-2-yl]pyrrolidin-1-yl]-4-(trifluoromethyl)-2,3-dihydropyridazin-3-one] it is under 100 nM; for `O=C(C[C@H]1CC[C@H]([C@@H]2CCCN2c2cn[nH]c(=O)c2C(F)(F)F)O1)N1CCN(c2ncc(C(F)(F)F)cn2)CC1` [Example 149D, 5-[(2S)-2-[(2R,5R)-5-(2-oxo-2-[4-[5-(trifluoromethyl)pyrimidin-2-yl]piperazin-1-yl]ethyl)oxolan-2-yl]pyrrolidin-1-yl]-4-(trifluoromethyl)-2,3-dihydropyridazin-3-one] it is under 100 nM.
On to `O=c1[nH]ncc(N2Cc3ccc(OC4CCNCC4)cc3C2)c1C(F)(F)F` [Example 150, 5-[5-(Piperidin-4-yloxy)-2,3-dihydro-1H-isoindol-2-yl]-4-(trifluoromethyl)-2,3-dihydropyridazin-3-one], for which the half-maximal inhibitory concentration (IC50) is under 100 nM.
On to `O=c1[nH]ncc(N2Cc3ccccc3C2)c1Cl` [Example 151, 4-Chloro-5-(isoindolin-2-yl)pyridazin-3(2H)-one], for which the IC50 was in the range of 100 to 1000 nM.
The figure for `O=c1[nH]ncc(N2Cc3ccncc3C2)c1Cl` [Example 152, 4-Chloro-5-(1,3-dihydro-2H-pyrrolo[3,4-c]pyridin-2-yl)pyridazin-3(2H)-one] is 100 to 1000 nM; for `COc1cccc2c1CN(c1cn[nH]c(=O)c1Cl)C2` [Example 153, 4-Chloro-5-(4-methoxyisoindolin-2-yl)pyridazin-3(2H)-one] it is 100 to 1000 nM; for `O=c1[nH]ncc(N2Cc3cccnc3C2)c1Cl` [Example 154, 4-Chloro-5-(5,7-dihydro-6H-pyrrolo[3,4-b]pyridin-6-yl)pyridazin-3(2H)-one] it is 100 to 1000 nM.
The compound `COc1ccc2c(c1)CN(c1cn[nH]c(=O)c1Cl)C2` [Example 155, 4-Chloro-5-(5-methoxyisoindolin-2-yl)pyridazin-3(2H)-one] had a concentration for half-maximal inhibition (IC50) of 100 to 1000 nM.
Then `COCCOc1ccc2c(c1)CN(c1cn[nH]c(=O)c1Cl)C2` [Example 156, 4-Chloro-5-(5-(2-methoxyethoxy)isoindolin-2-yl)pyridazin-3(2H)-one], with 100 to 1000 nM.
As to `O=c1[nH]ncc(N2Cc3ccc(OCCO)cc3C2)c1Cl` [Example 157, 4-Chloro-5-(5-(2-hydroxyethoxy)isoindolin-2-yl)pyridazin-3(2H)-one], the IC50 is 100 to 1000 nM.
Turning to `O=c1[nH]ncc(N2Cc3ccc(OC4CCNCC4)cc3C2)c1Cl` [Example 158, 4-Chloro-5-(5-(piperidin-4-yloxy)isoindolin-2-yl)pyridazin-3(2H)-one], the 50% inhibitory concentration (IC50) lay in the range of 100 to 1000 nM.
Turning to `Cc1c(N2Cc3ccccc3C2)cn[nH]c1=O` [Example 159, 5-(Isoindolin-2-yl)-4-methylpyridazin-3(2H)-one], the IC50 was at least 1000 nM.
Then `O=c1[nH]ncc(N2Cc3ccccc3C2)c1C(F)(F)F` [Example 160, 5-(Isoindolin-2-yl)-4-(trifluoromethyl)pyridazin-3(2H)-one], with under 100 nM; and `O=c1[nH]ncc(N2Cc3cccc(OCCO)c3C2)c1Cl` [Example 161, 4-Chloro-5-(4-(2-hydroxyethoxy)isoindolin-2-yl)pyridazin-3(2H)-one], with 100 to 1000 nM; and `COCCOc1cccc2c1CN(c1cn[nH]c(=O)c1Cl)C2` [Example 162, 4-Chloro-5-(4-(2-methoxyethoxy)isoindolin-2-yl)pyridazin-3(2H)-one], with 100 to 1000 nM.
The figure for `NCCOc1cccc2c1CN(c1cn[nH]c(=O)c1Cl)C2` [Example 163, 5-(4-(2-Aminoethoxy)isoindolin-2-yl)-4-chloropyridazin-3(2H)-one] is at least 1000 nM; for `COc1cccc2c1CN(c1cn[nH]c(=O)c1C(F)(F)F)C2` [Example 164, 5-(4-Methoxyisoindolin-2-yl)-4-(trifluoromethyl)pyridazin-3(2H)-one] it is under 100 nM; for `O=c1[nH]ncc(N2Cc3cccc(OC4CCNCC4)c3C2)c1Cl` [Example 165, 4-Chloro-5-(4-(piperidin-4-yloxy)isoindolin-2-yl)pyridazin-3(2H)-one] it is at least 1000 nM.
Then `CN(C)CCOc1cccc2c1CN(c1cn[nH]c(=O)c1Cl)C2` [Example 166, 4-Chloro-5-(4-(2-(dimethylamino)ethoxy)isoindolin-2-yl)pyridazin-3(2H)-one], with at least 1000 nM.
For `COc1cccc2c1CN(c1cn[nH]c(=O)c1C)C2` [Example 167, 5-(4-Methoxyisoindolin-2-yl)-4-methylpyridazin-3(2H)-one], the IC50 fell in the range of 100 to 1000 nM.
Then `O=c1[nH]ncc(N2Cc3cccc(OCCO)c3C2)c1Br` [Example 168, 4-Bromo-5-(4-(2-hydroxyethoxy)isoindolin-2-yl)pyridazin-3(2H)-one], with 100 to 1000 nM.
The compound `O=c1[nH]ncc(N2Cc3ccc(F)cc3C2)c1C(F)(F)F` [Example 169, 5-(5-Fluoroisoindolin-2-yl)-4-(trifluoromethyl)pyridazin-3(2H)-one] registered a 50% inhibitory concentration (IC50) of under 100 nM.
The figure for `O=c1[nH]ncc(N2Cc3cccc(OC4CCNCC4)c3C2)c1C(F)(F)F` [Example 170, 5-(4-(Piperidin-4-yloxy)isoindolin-2-yl)-4-(trifluoromethyl)pyridazin-3(2H)-one] is under 100 nM.
The figure for `Cc1c(N2Cc3cccc(OCCO)c3C2)cn[nH]c1=O` [Example 171, 5-(4-(2-Hydroxyethoxy)isoindolin-2-yl)-4-methylpyridazin-3(2H)-one] is at least 1000 nM.
Take `O=c1[nH]ncc(N2Cc3cccc(OC4CCNCC4)c3C2)c1Br` [Example 172, 4-Bromo-5-(4-(piperidin-4-yloxy)isoindolin-2-yl)pyridazin-3(2H)-one]: the IC50 was 100 to 1000 nM.
Turning to `COc1ccc2c(c1)CN(c1cn[nH]c(=O)c1C)C2` [Example 173, 5-(5-Methoxyisoindolin-2-yl)-4-methylpyridazin-3(2H)-one], the IC50 lay in the range of 100 to 1000 nM.
Then `COc1ccc2c(c1)CN(c1cn[nH]c(=O)c1C(F)(F)F)C2` [Example 174, 5-(5-Methoxyisoindolin-2-yl)-4-(trifluoromethyl)pyridazin-3(2H)-one], with under 100 nM; and `Cc1c(N2Cc3cccc(OC4CCNCC4)c3C2)cn[nH]c1=O` [Example 175, 4-Methyl-5-(4-(piperidin-4-yloxy)isoindolin-2-yl)pyridazin-3(2H)-one], with at least 1000 nM.
